Measured values reported in US20110021515A1, “DIHYROFUROPYRMINDINE COMPOUNDS” (TAKEDA PHARMACEUTICAL COMPANY LIMITED, priority 2009, published 2011).

target: T1, human mTOR (Homo sapiens, UniProt P42345); experiment: Inhibition of mTOR (LanthaScreen TR-FRET, GFP-4E-BP1 substrate); assay type: biochemical; conditions: purified mTor, GFP-4E-BP1 and ATP, 30 min at room temperature; read-out: pIC50 for inhibition of human mTOR in the assay of Example A (converted)
T1 construct: purchased Invitrogen
Procedure: Example A Inhibition of mTOR
Purified mTor are purchased from Invitrogen. mTor activity was determined using Invitrogen's LanthaScreen system. The inhibitory properties of compounds relative to mTor may be determined using a black 384-well-plate format in the following buffer 50 mM Hepes, 10 mM NaCl, 10 mM MgCl2, 0.2 mM EDTA, 0.01% Brij35, 2 mM DTT at pH7.3. The test compound is prepared in DMSO using 2 fold serial dilutions for 11 data points which are added to the buffer so that each dilution contains 3% DMSO.
An assay for mTor inhibition is as follows:
Combine in each well 2 μl of 1.2 μM GFP-4E-BP1 (Invitrogen) and 150 μM ATP (in buffer), 2 μl of diluted test compound (3% DMSO in buffer), and 2 μl of 6 nM mTor in buffer. The reaction mixture is then incubated at room temperature for 30 min, and quenched by adding 40 mM ETDA with 4 nM Tb-anti-p4E-BP1 [pThr46] antibody in TR-FRET dilution buffer (Invitrogen). The plate is kept at room temperature for 1 hour and then read using PheraStar (BMG labtech) LanthaScreen mode.
pIC50 values, the negative of the log of the IC50, are calculated by non-linear curve fitting of the compound concentrations and percent of inhibition to the standard pIC50 equation.

SMILES | IC50
CCNC(=O)Nc1ccc(-c2nc(N3CC4CCC(C3)O4)c3c(n2)C(C)(C)OC3)cc1 [Example 9, 1-(4-(4-(8-oxa-3-azabicyclo[3.2.1]octan-3-yl)-7,7-dimethyl-5,7-dihydrofuro[3,4-d]pyrimidin-2-yl)phenyl)-3-ethylurea] | < 31.6 nM
CCNC(=O)Nc1ccc(-c2nc(N3CCOCC3)c3c(n2)C2(CC2)OC3)cc1 [Example 14, 1-ethyl-3-(4-(4′-morpholino-5′H-spiro[cyclopropane-1,7′-furo[3,4-d]pyrimidine]-2′-yl)phenyl)urea] | < 31.6 nM
CNC(=O)Nc1ccc(-c2nc(N3CCOCC3)c3c(n2)C2(CC2)OC3)cc1 [Example 16, 1-methyl-3-(4-(4′-morpholino-5′H-spiro[cyclopropane-1,7′-furo[3,4-d]pyrimidine]-2′-yl)phenyl)urea] | < 31.6 nM
CNC(=O)Nc1ccc(-c2nc(N3CCOCC3)c3c(n2)C(C)(C)OC3)cc1 [Example 8, 1-(4-(7,7-dimethyl-4-morpholino-5,7-dihydrofuro[3,4-d]pyrimidin-2-yl)phenyl)-3-methylurea] | < 31.6 nM
CNC(=O)Nc1ccc(-c2nc(N3CCOCC3)c3c(n2)C(C)(C)CO3)cc1 [Example 2, 1-(4-(7,7-dimethyl-4-morpholino-6,7-dihydrofuro[3,2-d]pyrimidin-2-yl)phenyl)-3-methylurea] | < 31.6 nM
CNC(=O)Nc1ccc(-c2nc(N3CC4CCC(C3)O4)c3c(n2)C(C)(C)CO3)cc1 [Example 4, 1-(4-(4-(8-oxa-3-azabicyclo[3.2.1]octan-3-yl)-7,7-dimethyl-6,7-dihydrofuro[3,2-d]pyrimidin-2-yl)phenyl)-3-methylurea] | < 31.6 nM
CNC(=O)Nc1ccc(-c2nc(N3CC4CCC(C3)O4)c3c(n2)C(C)(C)OC3)cc1 [Example 6, 1-(4-(4-(8-oxa-3-azabicyclo[3.2.1]octan-3-yl)-7,7-dimethyl-5,7-dihydrofuro[3,4-d]pyrimidin-2-yl)phenyl)-3-methylurea] | < 31.6 nM
CC1(C)OCc2c(N3CCOCC3)nc(-c3ccc(NC(=O)NC4CC4)cc3)nc21 [Example 11, 1-cyclopropyl-3-(4-(7,7-dimethyl-4-morpholino-5,7-dihydrofuro[3,4-d]pyrimidin-2-yl)phenyl)urea] | < 31.6 nM
CCNC(=O)Nc1ccc(-c2nc(N3CCOCC3)c3c(n2)C(C)(C)OC3)cc1 [Example 10] | < 31.6 nM
CNC(=O)Nc1ccc(-c2nc(N3CC4CCC(C3)O4)c3c(n2)C(C)(O)OC3)cc1 (stereo not drawn) [Example 12, 1-(4-(4-(8-oxa-3-azabicyclo[3.2.1]octan-3-yl)-7-hydroxy-7-methyl-5,7-dihydrofuro[3,4-d]pyrimidin-2-yl)phenyl)-3-methylurea] | 31.6 to 1000 nM
CNC(=O)Nc1ccc(-c2nc(N3CC4CCC(C3)O4)c3c(n2)C2(CC2)OC3)cc1 [Example 13, 1-(4-(4′-(8-oxa-3-azabicyclo[3.2.1]octan-3-yl)-5′H-spiro[cyclopropane-1,7′-furo[3,4-d]pyrimidine]-2′-yl)phenyl)-3-methylurea] | < 31.6 nM
O=C(Nc1ccc(-c2nc(N3CCOCC3)c3c(n2)C2(CC2)OC3)cc1)NC1CC1 [Example 15, 1-cyclopropyl-3-(4-(4′-morpholino-5′H-spiro[cyclopropane-1,7′-furo[3,4-d]pyrimidine]-2′-yl)phenyl)urea] | < 31.6 nM
